These results are taken from patent US11407745B2, “Indazole derivatives and pharmaceutical composition for preventing, alleviating or treating cancer containing the same” (KOREA INSTITUTE OF SCIENCE AND TECHNOLOGY, priority 2019, dated 2022).

The target in data set [1] is T1, ABL^T315I (Homo sapiens, UniProt P00519, T315I). The following applies: positive controls, values in the references; cited from earlier work.
For data set [2], the target named is T2, ABL^wild (Homo sapiens, UniProt P00519). The following applies: positive controls, values in the references; cited from earlier work.
Data set [3] has as its system K-562 (human leukemia cancer) cells. The following applies: positive controls, values in the references; read-out: GI50, μm K562; cited from earlier work.
A further data set deals with DDR1 (Homo sapiens, UniProt Q08345). Briefly: Hot Spot kinase assay, DDR1. Format: biochemical. The conditions noted are these: for IC50: ATP 10 μM, 25° C., 120 minutes. As for the experimental part:
The kinase inhibitory effect of the compounds of Compound Nos. 1 to 16 was measured. Kinase analysis was conducted in a “Hot Spot” analysis platform manner. Specific kinase/substrate pairs and cofactors were prepared in a reaction buffer (20 mM HEPES (pH 7.5), 10 mM MgCl2, 1 mM EGTA, 0.02% Brij35, 0.02 mg/ml BSA, 0.1 mM Na3VO4, 2 mM DTT and 1% DMSO). 10 concentrations of compounds that were serially diluted 3 times in sequence from a concentration of 20 μM were added to the reaction mixture, and a mixture of ATP (10 μM, Sigma) and 33P ATP (Perkin Elmer) was added thereto after 20 minutes. The reaction was conducted at 25° C. for 120 minutes, the spots during the reaction were filtered using P81 ion exchange filter paper (Whatman #3698-915), and the unbound phosphate was removed by washing with 0.1% phosphoric acid using a filter.

The target of data set [4] is T2, ABL^wild. Briefly: Hot Spot kinase assay, ABL wild type. The following applies: for IC50: ATP 10 μM, 25° C., 120 minutes. Format: biochemical. How it is done: (§1) Kinase analysis was conducted in a “Hot Spot” analysis platform manner. Specific kinase/substrate pairs and cofactors were prepared in a reaction buffer (20 mM HEPES (pH 7.5), 10 mM MgCl2, 1 mM EGTA, 0.02% Brij35, 0.02 mg/ml BSA, 0.1 mM Na3VO4, 2 mM DTT and 1% DMSO). 10 concentrations of compounds that were serially diluted 3 times in sequence from a concentration of 20 μM were added to the reaction mixture, and a mixture of ATP (10 μM, Sigma) and 33P ATP (Perkin Elmer) was added thereto after 20 minutes.

The subject of data set [5] is K-562 (human leukemia cancer) cells. Kind of data set: MTT assay, anti-proliferative effect on K-562. The class given is cell-based. The following applies: for GI50: Homo sapiens, MTT; for fold higher inhibitory effect than imatinib (K-562 GI50): versus imatinib positive control; for fold higher inhibitory effect than nilotinib (K-562 GI50): versus nilotinib. As for the experimental part:
The cell line used for an MTT assay was K-562 (human leukemia cancer), and was obtained from the Korea Cell Line Bank and then cultured. The medium herein used was RPMI 1640 medium containing 10% fetal bovine serum, and the culture was conducted in a constant-temperature constant-humidity incubator (37° C., 5% CO2). The cells were seeded at a density of 3×10^3 cells/well in a 96-well microplate and cultured in a CO2 incubator for 24 hours, the medium was removed, and further culture was performed for 72 hours in 100 μl of respective inhibitor solutions diluted to different concentrations. 15 μl of an MTT solution (Promega, CellTiter 96) was added thereto and cultured for 4 hours. Then, blue formazan, formed by adding 100 μl of a stop solution (Promega, CellTiter 96), was dissolved.
After the culture solution was allowed to stand for 18 hours or more, absorbance was measured at 570 nm to obtain IC50 (a concentration at which 50% of cancer cells are inhibited).
In general terms: Tetrazolium dyes change colour on reduction, which living cells bring about.

The target in data set [6] is T1, ABL^T315I. Kind of data set: Hot Spot kinase assay, ABL T315I. Format: biochemical. The conditions noted are these: for IC50: ATP 10 μM, 25° C., 120 minutes. How it is done: as §1
The test system of the next data set is CML patients. The following applies: primary therapeutic agent for CML patients; cited from earlier work.
For another data set, the system named is patients. The conditions noted are these: patients administered with ponatinib; cited from earlier work.
Where [7] appears, read: K562, 72 hours treatment, read-out: GI50, μm K562.
Setting [8] is: K562, 72 hours, read-out: GI50 against K-562 cancer cells.

Read-outs that look alike come from different tables or passages of the source.

Chain of DDR1 (Q08345 19-913): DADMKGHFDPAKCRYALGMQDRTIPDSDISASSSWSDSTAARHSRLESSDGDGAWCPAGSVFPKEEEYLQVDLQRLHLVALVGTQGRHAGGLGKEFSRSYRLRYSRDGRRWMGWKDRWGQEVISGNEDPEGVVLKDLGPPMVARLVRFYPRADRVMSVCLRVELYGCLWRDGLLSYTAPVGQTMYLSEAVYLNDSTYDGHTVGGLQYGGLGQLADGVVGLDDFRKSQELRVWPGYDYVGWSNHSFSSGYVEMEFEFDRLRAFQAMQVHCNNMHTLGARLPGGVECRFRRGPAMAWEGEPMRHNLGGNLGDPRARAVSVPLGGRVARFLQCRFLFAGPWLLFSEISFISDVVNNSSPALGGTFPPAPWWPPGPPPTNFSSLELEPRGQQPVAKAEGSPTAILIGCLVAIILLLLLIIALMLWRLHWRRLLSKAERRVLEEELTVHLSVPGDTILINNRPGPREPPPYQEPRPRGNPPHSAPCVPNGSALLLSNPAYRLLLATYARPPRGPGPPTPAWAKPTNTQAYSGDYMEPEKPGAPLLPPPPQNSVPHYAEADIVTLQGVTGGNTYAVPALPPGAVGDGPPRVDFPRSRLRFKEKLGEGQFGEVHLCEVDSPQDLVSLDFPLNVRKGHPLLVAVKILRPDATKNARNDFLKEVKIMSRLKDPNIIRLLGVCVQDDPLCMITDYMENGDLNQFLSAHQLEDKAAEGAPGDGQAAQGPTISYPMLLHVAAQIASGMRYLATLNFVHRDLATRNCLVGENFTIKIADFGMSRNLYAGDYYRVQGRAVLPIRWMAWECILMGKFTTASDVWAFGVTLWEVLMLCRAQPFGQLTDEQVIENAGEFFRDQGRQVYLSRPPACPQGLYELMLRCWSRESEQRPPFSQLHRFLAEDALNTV

Take `Nc1n[nH]c2cccc(-c3ccc(C(=O)N4CCN(C(=O)c5ccc(Cl)cc5Cl)CC4)cc3)c12` [(4-(4-(3-amino-1H-indazol-4-yl)benzoyl)piperazin-1-yl)(2,4-dichlorophenyl)methanone]: the IC50 (usually the concentration that gives 50% inhibition) at ABL^T315I [1] is 450 nM; at ABL^wild [2], 14 nM. Moreover, in [3], the GI50 (in general, the concentration at which growth is held to half of that of the control) was 6500 nM.
Consider `Nc1n[nH]c2cccc(C#Cc3cccc(NC(=O)c4cccc(C(F)(F)F)c4)c3)c12` [Compound No. 1, N-(3-((3-Amino-1H-indazol-4-yl)ethynyl)phenyl)-3-(trifluoromethyl)benzamide], for which the IC50 against DDR1 turned out to be 53.3 nM; on ABL^wild [4], 313 nM; against ABL^T315I [6], 2550 nM. For the same compound, the concentration for 50% growth inhibition (GI50) in [5] (setting [7]) came out at 1450 ± 1160 nM.
On to `Nc1n[nH]c2cccc(C#Cc3cccc(NC(=O)c4cc(C(F)(F)F)cc(C(F)(F)F)c4)c3)c12` [Compound No. 2, 4N-(3-((3-Amino-1H-indazol-4-yl)ethynyl)phenyl)-3,5-bis (trifluoromethyl)benzamide], for which the concentration for half-maximal inhibition (IC50) is 96.5 nM against DDR1 and 667 nM against ABL^wild [4].
Regarding `Cc1cn(-c2cc(C(=O)Nc3cccc(C#Cc4cccc5[nH]nc(N)c45)c3)cc(C(F)(F)F)c2)cn1` [Compound No. 3], the IC50 on DDR1 stood at 13.1 nM; at ABL^wild [4], 17.1 nM; against ABL^T315I [6] it was 1290 nM. Further, in [5] (setting [7]), the GI50 came out at 120 nM.
Take `Nc1n[nH]c2cccc(C#Cc3cccc(NC(=O)c4cc(F)cc(C(F)(F)F)c4)c3)c12` [Compound No. 4, N-(3-((3-Amino-1H-indazol-4-yl)ethynyl)phenyl)-3-fluoro-5-(trifluoromethyl)benzamide]: the figures for the IC50 on DDR1 and against ABL^wild [4] were 82.8 nM and 172 nM, respectively. Further, in data set [5] (setting [7]), the concentration for 50% growth inhibition (GI50) amounted to 2100 ± 1110 nM.
`Nc1n[nH]c2cccc(C#Cc3cccc(NC(=O)c4cc(N5CCOCC5)cc(C(F)(F)F)c4)c3)c12` [Compound No. 5, N-(3-((3-Amino-1H-indazol-4-yl)ethynyl)phenyl)-3-morpholino-5-(trifluoromethyl)benzamide]: the IC50 at DDR1 was found to be 20.1 nM; against ABL^wild [4], 637 nM. For the same compound, the GI50 in data set [5] (setting [7]) came out at 2140 ± 1150 nM.
`Cc1ccc(C(=O)Nc2cccc(C#Cc3cccc4[nH]nc(N)c34)c2)cc1C(F)(F)F` [Compound No. 6, N-(3-((3-Amino-1H-indazol-4-yl)ethynyl)phenyl)-4-methyl-3-(trifluoromethyl)benzamide]: the values for the IC50 against DDR1, against ABL^wild [4] and at ABL^T315I [6] were 22.6 nM, 104 nM and 2960 nM, respectively. The GI50 in data set [5] (setting [7]) amounted to 1620 ± 1240 nM.
At DDR1, `CN1CCN(c2ccc(C(=O)Nc3cccc(C#Cc4cccc5[nH]nc(N)c45)c3)cc2C(F)(F)F)CC1` [Compound No. 7, N-(3-((3-Amino-1H-indazol-4-yl)ethynyl)phenyl)-4-(4-methylpiperazin-1-yl)-3-(trifluoromethyl)benzamide] displayed an IC50 of 31.9 nM.
On to `Nc1n[nH]c2cccc(C#Cc3cccc(NC(=O)c4ccc(N5CCOCC5)c(C(F)(F)F)c4)c3)c12` [Compound No. 8], for which, on DDR1, the “inhibitory activity against DDR1 (in words)” value is listed as “excellent inhibitory activity” and the IC50 is 14.7 nM. For the same compound, on ABL^wild [4], the “inhibitory activity against ABL (in words)” value is on record as “excellent inhibitory activity” and half-maximal inhibition (IC50) required 5.21 nM. For the same compound, in data set [5], the “proliferation inhibitory effect on K-562 cancer cells (in words)” value is listed as “excellent anti-proliferative activity”, the “fold higher inhibitory effect than imatinib (K-562 GI50)” value worked out at 13 fold and the “fold higher inhibitory effect than nilotinib (K-562 GI50)” value is reported as 4 fold. Further, the GI50 in data set [5] (setting [8]) was found to be 20 nM. Besides, on ABL^T315I [6], the “inhibitory activity against the T315I point mutation of ABL (in words)” value was “exhibited inhibitory activity” and it took 183 nM to reach half-maximal inhibition (IC50).
For `Nc1n[nH]c2cccc(C#Cc3cccc(C(=O)Nc4cccc(C(F)(F)F)c4)c3)c12` [Compound No. 9], the IC50 against DDR1 turned out to be 18.4 nM; at ABL^wild [4], 210 nM. For the same compound, the 50% growth inhibitory concentration (GI50) in [5] (setting [7]) was 3750 ± 1220 nM.
With `Nc1n[nH]c2cccc(C#Cc3cccc(C(=O)Nc4cc(C(F)(F)F)cc(C(F)(F)F)c4)c3)c12` [Compound No. 10, 3-((3-Amino-1H-indazol-4-yl)ethynyl)-N-(3,5-bis(trifluoromethyl)phenyl)benzamide], the results for the IC50 at DDR1 and at ABL^wild [4] were 33 nM and 186 nM, respectively. Moreover, the concentration for 50% growth inhibition (GI50) in data set [5] (setting [7]) stood at 460 ± 1340 nM.
As to `Cc1cn(-c2cc(NC(=O)c3cccc(C#Cc4cccc5[nH]nc(N)c45)c3)cc(C(F)(F)F)c2)cn1` [Compound No. 11, 3-((3-Amino-1H-indazol-4-yl)ethynyl)-N-(3-(4-methyl-1H-imidazol-1-yl)-5-(trifluoromethyl)phenyl)benzamide], the IC50 against DDR1 was determined as 21 nM; on ABL^wild [4], 15.4 nM; against ABL^T315I [6] it was 1060 nM. In addition, in data set [5] (setting [7]), the GI50 is 140 nM.
As to `CN1CCN(Cc2cc(NC(=O)c3cccc(C#Cc4cccc5[nH]nc(N)c45)c3)cc(C(F)(F)F)c2)CC1` [Compound No. 12], the IC50 was 29.1 nM against DDR1, 60.5 nM against ABL^wild [4] and 1150 nM against ABL^T315I [6]. Besides, in data set [5] (setting [7]), the GI50 was found to be 290 nM.
For the compound `Nc1n[nH]c2cccc(C#Cc3cccc(C(=O)Nc4ccc(Cl)c(C(F)(F)F)c4)c3)c12` [Compound No. 14, 3-((3-Amino-1H-indazol-4-yl)ethynyl)-N-(4-chloro-3-(trifluoromethyl)phenyl)benzamide], the IC50 on DDR1 stood at 20 nM; on ABL^wild [4], 255 nM. Further, in data set [5] (setting [7]), the concentration for 50% growth inhibition (GI50) was 3330 ± 1180 nM.
In the case of `CCN1CCN(Cc2ccc(NC(=O)c3cccc(C#Cc4cccc5[nH]nc(N)c45)c3)cc2C(F)(F)F)CC1` [Compound No. 15, 3-((3-Amino-1H-indazol-4-yl)ethynyl)-N-(4-((4-ethylpiperazin-1-yl)methyl)-3-(trifluoromethyl)phenyl)benzamide], at DDR1, the “inhibitory activity against DDR1 (in words)” value is recorded as “excellent inhibitory activity” and half-maximal inhibition (IC50) was put at 3.7 nM. For the same compound, on ABL^wild [4], the “inhibitory activity against ABL (in words)” value is “excellent inhibitory activity” and the IC50 was found to be 0.625 nM. Also, in data set [5], the “proliferation inhibitory effect on K-562 cancer cells (in words)” value is “excellent anti-proliferative activity”, the “fold higher inhibitory effect than imatinib (K-562 GI50)” value was found to be 8.9 fold and the “fold higher inhibitory effect than nilotinib (K-562 GI50)” value came to 2.7 fold. Moreover, the GI50 in [5] (setting [8]) amounted to 30 nM. The GI50 in data set [5] (setting [7]) stood at 30 nM. In addition, at ABL^T315I [6], the “inhibitory activity against the T315I point mutation of ABL (in words)” value is “excellent inhibitory activity” and it took 5.82 nM to reach half-maximal inhibition (IC50).
With `Nc1n[nH]c2cccc(C#Cc3cccc(C(=O)Nc4ccc(CN5CCOCC5)c(C(F)(F)F)c4)c3)c12` [Compound No. 16], the IC50 worked out at 16.3 nM against DDR1, 103 nM against ABL^wild [4] and 1360 nM against ABL^T315I [6]. For the same compound, the 50% growth inhibitory concentration (GI50) in data set [5] (setting [7]) came out at 520 ± 1250 nM.
Turning to `Cc1ccc(NC(=O)c2ccc(CN3CCN(C)CC3)cc2)cc1Nc1nccc(-c2cccnc2)n1` [Imatinib], the “share of patients in whom effective” value with CML patients is recorded as 67%. Also, in data set [3], the GI50 was 267 ± 30 nM.
`Cc1cn(-c2cc(NC(=O)c3ccc(C)c(Nc4nccc(-c5cccnc5)n4)c3)cc(C(F)(F)F)c2)cn1` [Nilotinib]: in data set [3], the concentration for 50% growth inhibition (GI50) was 80 ± 90 nM.
Turning to `Cc1ccc(C(=O)Nc2ccc(CN3CCN(C)CC3)c(C(F)(F)F)c2)cc1C#Cc1cnc2cccnn12` [Ponatinib], in the data set on patients, the “share of patients with side effects such as thrombosis or narrowing of blood vessel walls” value was 20%.
